Source: PubChem BioAssay (NCI)
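GI50 = concentration required for 50% inhibition of growth. TGI denotes the concentration required for complete inhibition of growth.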

What was measured:
Experiment in all cases: inhibition of tumour cell growth, NCI panel, 384-well format; in the data active means GI50 below about 0.43 µM; inactive means the rest
786-0 renal = test system: 786-0 renal
A498 renal = test system: A498 renal
A549 NSCLC = test system: A549 NSCLC
ACHN renal = test system: ACHN renal
BT-549 breast = test system: BT-549 breast
CAKI-1 renal = test system: CAKI-1 renal
CCRF-CEM leukemia = test system: CCRF-CEM leukemia
COLO 205 colon = test system: COLO 205 colon
DU-145 prostate = test system: DU-145 prostate
EKVX NSCLC = test system: EKVX NSCLC
HCC-2998 colon = test system: HCC-2998 colon
HCT-15 colon = test system: HCT-15 colon
HL-60(TB) leukemia = test system: HL-60(TB) leukemia
HOP-62 NSCLC = test system: HOP-62 NSCLC
HOP-92 NSCLC = test system: HOP-92 NSCLC
HS 578T breast = test system: HS 578T breast
HT29 colon = test system: HT29 colon
IGROV1 ovarian = test system: IGROV1 ovarian
KM12 colon = test system: KM12 colon
M14 melanoma = test system: M14 melanoma
MALME-3M melanoma = test system: MALME-3M melanoma
MCF7 breast = test system: MCF7 breast
MDA-MB-231 breast = test system: MDA-MB-231 breast
MDA-MB-435 melanoma = test system: MDA-MB-435 melanoma
MDA-MB-468 breast = test system: MDA-MB-468 breast
MOLT-4 leukemia = test system: MOLT-4 leukemia
NCI-H226 lung = test system: NCI-H226 lung
NCI-H23 lung = test system: NCI-H23 lung
NCI-H322M lung = test system: NCI-H322M lung
NCI-H460 NSCLC = test system: NCI-H460 NSCLC
NCI-H522 lung = test system: NCI-H522 lung
NCI/ADR-RES ovarian = test system: NCI/ADR-RES ovarian
OVCAR-3 ovarian = test system: OVCAR-3 ovarian
OVCAR-4 ovarian = test system: OVCAR-4 ovarian
OVCAR-5 ovarian = test system: OVCAR-5 ovarian
OVCAR-8 ovarian = test system: OVCAR-8 ovarian
PC-3 prostate = test system: PC-3 prostate
RPMI-8226 leukemia = test system: RPMI-8226 leukemia
RXF 393 renal = test system: RXF 393 renal
SF-268 CNS = test system: SF-268 CNS
SF-295 CNS = test system: SF-295 CNS
SF-539 CNS = test system: SF-539 CNS
SK-MEL-2 melanoma = test system: SK-MEL-2 melanoma
SK-MEL-28 melanoma = test system: SK-MEL-28 melanoma
SK-MEL-5 melanoma = test system: SK-MEL-5 melanoma
SK-OV-3 ovarian = test system: SK-OV-3 ovarian
SN12C renal = test system: SN12C renal
SNB-19 CNS = test system: SNB-19 CNS
SNB-75 CNS = test system: SNB-75 CNS
SR leukemia = test system: SR leukemia
SW-620 colon = test system: SW-620 colon
T-47D breast = test system: T-47D breast
TK-10 renal = test system: TK-10 renal
U251 glioblastoma = test system: U251 glioblastoma
UACC-257 melanoma = test system: UACC-257 melanoma
UACC-62 melanoma = test system: UACC-62 melanoma
HCT-116 colon = test system: HCT-116 colon
LOX IMVI melanoma = test system: LOX IMVI melanoma
UO-31 renal = test system: UO-31 renal

O=c1[nH]c(-c2ccc(C(F)(F)F)cc2)nc2c1CSCC2
> 100 µM: TGI (786-0 renal) | TGI (A498 renal) | TGI (A549 NSCLC) | TGI (ACHN renal) | TGI (BT-549 breast) | TGI (CAKI-1 renal) | TGI (CCRF-CEM leukemia) | TGI (COLO 205 colon) | TGI (DU-145 prostate) | TGI (EKVX NSCLC) | TGI (HCC-2998 colon) | TGI (HCT-15 colon) | TGI (HL-60(TB) leukemia) | TGI (HOP-62 NSCLC) | TGI (HOP-92 NSCLC) | TGI (HS 578T breast) | TGI (HT29 colon) | TGI (IGROV1 ovarian) | TGI (KM12 colon) | TGI (M14 melanoma) | TGI (MALME-3M melanoma) | TGI (MCF7 breast) | TGI (MDA-MB-231 breast) | TGI (MDA-MB-435 melanoma) | TGI (MOLT-4 leukemia) | TGI (NCI-H226 lung) | TGI (NCI-H23 lung) | TGI (NCI-H322M lung) | TGI (NCI-H460 NSCLC) | TGI (NCI-H522 lung) | TGI (NCI/ADR-RES ovarian) | TGI (OVCAR-3 ovarian) | TGI (OVCAR-4 ovarian) | TGI (OVCAR-5 ovarian) | TGI (OVCAR-8 ovarian) | TGI (PC-3 prostate) | TGI (RPMI-8226 leukemia) | TGI (RXF 393 renal) | TGI (SF-268 CNS) | TGI (SF-295 CNS) | TGI (SF-539 CNS) | TGI (SK-MEL-2 melanoma) | TGI (SK-MEL-28 melanoma) | TGI (SK-MEL-5 melanoma) | TGI (SK-OV-3 ovarian) | TGI (SN12C renal) | TGI (SNB-19 CNS) | TGI (SNB-75 CNS) | TGI (SR leukemia) | TGI (SW-620 colon) | TGI (T-47D breast) | TGI (TK-10 renal) | TGI (U251 glioblastoma) | TGI (UACC-257 melanoma) | TGI (UACC-62 melanoma)
inactive: GI50 (786-0 renal) > 100 µM | GI50 (A498 renal) 95.7 µM | GI50 (A549 NSCLC) > 100 µM | GI50 (ACHN renal) > 100 µM | GI50 (BT-549 breast) 30.5 µM | GI50 (CAKI-1 renal) 3.83 µM | GI50 (CCRF-CEM leukemia) 88.6 µM | GI50 (COLO 205 colon) > 100 µM | GI50 (DU-145 prostate) > 100 µM | GI50 (EKVX NSCLC) 24 µM | GI50 (HCC-2998 colon) > 100 µM | GI50 (HCT-15 colon) > 100 µM | GI50 (HL-60(TB) leukemia) > 100 µM | GI50 (HOP-62 NSCLC) 79.5 µM | GI50 (HOP-92 NSCLC) > 100 µM | GI50 (HS 578T breast) > 100 µM | GI50 (HT29 colon) > 100 µM | GI50 (IGROV1 ovarian) > 100 µM | GI50 (KM12 colon) > 100 µM | GI50 (M14 melanoma) > 100 µM | GI50 (MALME-3M melanoma) 25 µM | GI50 (MCF7 breast) > 100 µM | GI50 (MDA-MB-231 breast) > 100 µM | GI50 (MDA-MB-435 melanoma) > 100 µM | GI50 (MDA-MB-468 breast) 7.03 µM | GI50 (MOLT-4 leukemia) 68.7 µM | GI50 (NCI-H226 lung) 13.3 µM | GI50 (NCI-H23 lung) 25.7 µM | GI50 (NCI-H322M lung) > 100 µM | GI50 (NCI-H460 NSCLC) > 100 µM | GI50 (NCI-H522 lung) 28.8 µM | GI50 (NCI/ADR-RES ovarian) > 100 µM | GI50 (OVCAR-3 ovarian) 13.5 µM | GI50 (OVCAR-4 ovarian) 0.818 µM | GI50 (OVCAR-5 ovarian) > 100 µM | GI50 (OVCAR-8 ovarian) > 100 µM | GI50 (PC-3 prostate) > 100 µM | GI50 (RPMI-8226 leukemia) 78.3 µM | GI50 (RXF 393 renal) 13.5 µM | GI50 (SF-268 CNS) 98.9 µM | GI50 (SF-295 CNS) > 100 µM | GI50 (SF-539 CNS) > 100 µM | GI50 (SK-MEL-2 melanoma) 72.9 µM | GI50 (SK-MEL-28 melanoma) > 100 µM | GI50 (SK-MEL-5 melanoma) 52.5 µM | GI50 (SK-OV-3 ovarian) 14.7 µM | GI50 (SN12C renal) > 100 µM | GI50 (SNB-19 CNS) > 100 µM | GI50 (SNB-75 CNS) 24.5 µM | GI50 (SR leukemia) > 100 µM | GI50 (SW-620 colon) > 100 µM | GI50 (T-47D breast) > 100 µM | GI50 (TK-10 renal) > 100 µM | GI50 (U251 glioblastoma) > 100 µM | GI50 (UACC-257 melanoma) > 100 µM | GI50 (UACC-62 melanoma) > 100 µM
53 µM: TGI (MDA-MB-468 breast)

CC#CC(=O)N1CCC[C@H]1c1nc(-c2ccc(C(=O)Nc3ccccn3)cc2)c2c(N)nccn12
inactive: GI50 (786-0 renal) > 74.8 µM | GI50 (A498 renal) 59.6 µM | GI50 (A549 NSCLC) 51.9 µM | GI50 (ACHN renal) > 73.2 µM | GI50 (BT-549 breast) 27.9 µM | GI50 (CAKI-1 renal) 57.7 µM | GI50 (CCRF-CEM leukemia) 85.3 µM | GI50 (COLO 205 colon) > 100 µM | GI50 (DU-145 prostate) 82 µM | GI50 (EKVX NSCLC) 73.1 µM | GI50 (HCC-2998 colon) > 100 µM | GI50 (HCT-116 colon) 47.9 µM | GI50 (HCT-15 colon) > 76.2 µM | GI50 (HL-60(TB) leukemia) > 100 µM | GI50 (HOP-62 NSCLC) 42 µM | GI50 (HOP-92 NSCLC) 68.8 µM | GI50 (HS 578T breast) 44.9 µM | GI50 (HT29 colon) 84.8 µM | GI50 (IGROV1 ovarian) 20 µM | GI50 (KM12 colon) > 100 µM | GI50 (LOX IMVI melanoma) > 89.2 µM | GI50 (M14 melanoma) 74.8 µM | GI50 (MALME-3M melanoma) > 58.9 µM | GI50 (MCF7 breast) 50.9 µM | GI50 (MDA-MB-231 breast) 38.3 µM | GI50 (MDA-MB-435 melanoma) > 100 µM | GI50 (MDA-MB-468 breast) 15.5 µM | GI50 (MOLT-4 leukemia) 18.8 µM | GI50 (NCI-H226 lung) 41.6 µM | GI50 (NCI-H23 lung) > 100 µM | GI50 (NCI-H322M lung) 31.6 µM | GI50 (NCI-H460 NSCLC) 71.8 µM | GI50 (NCI-H522 lung) 5.87 µM | GI50 (NCI/ADR-RES ovarian) > 100 µM | GI50 (OVCAR-3 ovarian) 44.8 µM | GI50 (OVCAR-4 ovarian) > 100 µM | GI50 (OVCAR-5 ovarian) > 100 µM | GI50 (OVCAR-8 ovarian) > 90 µM | GI50 (PC-3 prostate) > 100 µM | GI50 (RPMI-8226 leukemia) 48.5 µM | GI50 (RXF 393 renal) 14.2 µM | GI50 (SF-268 CNS) > 86.4 µM | GI50 (SF-295 CNS) > 100 µM | GI50 (SF-539 CNS) > 100 µM | GI50 (SK-MEL-28 melanoma) > 100 µM | GI50 (SK-MEL-5 melanoma) 60.5 µM | GI50 (SK-OV-3 ovarian) 71.4 µM | GI50 (SN12C renal) 98 µM | GI50 (SNB-19 CNS) > 100 µM | GI50 (SNB-75 CNS) 29.7 µM | GI50 (SR leukemia) 15.2 µM | GI50 (SW-620 colon) > 100 µM | GI50 (T-47D breast) 40.1 µM | GI50 (TK-10 renal) 57.2 µM | GI50 (U251 glioblastoma) > 100 µM | GI50 (UACC-257 melanoma) 67.7 µM | GI50 (UACC-62 melanoma) 39.9 µM | GI50 (UO-31 renal) > 95.6 µM
98.4 µM: TGI (NCI-H226 lung)
> 100 µM: TGI (786-0 renal) | TGI (A498 renal) | TGI (A549 NSCLC) | TGI (ACHN renal) | TGI (CAKI-1 renal) | TGI (CCRF-CEM leukemia) | TGI (COLO 205 colon) | TGI (DU-145 prostate) | TGI (EKVX NSCLC) | TGI (HCC-2998 colon) | TGI (HCT-116 colon) | TGI (HCT-15 colon) | TGI (HL-60(TB) leukemia) | TGI (HOP-62 NSCLC) | TGI (HOP-92 NSCLC) | TGI (HS 578T breast) | TGI (HT29 colon) | TGI (KM12 colon) | TGI (LOX IMVI melanoma) | TGI (M14 melanoma) | TGI (MALME-3M melanoma) | TGI (MCF7 breast) | TGI (MDA-MB-231 breast) | TGI (MDA-MB-435 melanoma) | TGI (NCI-H23 lung) | TGI (NCI-H460 NSCLC) | TGI (NCI/ADR-RES ovarian) | TGI (OVCAR-3 ovarian) | TGI (OVCAR-4 ovarian) | TGI (OVCAR-5 ovarian) | TGI (OVCAR-8 ovarian) | TGI (PC-3 prostate) | TGI (RPMI-8226 leukemia) | TGI (SF-268 CNS) | TGI (SF-295 CNS) | TGI (SF-539 CNS) | TGI (SK-MEL-28 melanoma) | TGI (SK-MEL-5 melanoma) | TGI (SK-OV-3 ovarian) | TGI (SN12C renal) | TGI (SNB-19 CNS) | TGI (SW-620 colon) | TGI (T-47D breast) | TGI (TK-10 renal) | TGI (U251 glioblastoma) | TGI (UACC-257 melanoma) | TGI (UACC-62 melanoma) | TGI (UO-31 renal)
36.1 µM: TGI (MOLT-4 leukemia)
40.7 µM: TGI (MDA-MB-468 breast)
> 91.9 µM: TGI (BT-549 breast)
> 88.3 µM: TGI (NCI-H322M lung)
64.3 µM: TGI (IGROV1 ovarian)
> 80.8 µM: TGI (NCI-H522 lung)
> 83 µM: TGI (SNB-75 CNS)
> 60.9 µM: TGI (RXF 393 renal)
42.1 µM: TGI (SR leukemia)
